# From US20250221987A1, “PIPERAZINO RING-CONTAINING DERIVATIVE, PHARMACEUTICALLY ACCEPTABLE SALT THEREOF, PREPARATION METHOD THEREFOR, AND APPLICATION THEREOF” (ACERAND THERAPEUTICS (HONG KONG) LIMITED, priority 2022, published 2025)
# Like-named read-outs stand apart in the source and are kept apart here.
# What was measured:
# [1] = Pharmacokinetic study in ICR (CD-1) mice; type: in vivo; conditions: male ICR (CD-1) mice, tail vein 1 mg/kg, oral 3 mg/kg groups, plasma; for half-life: mouse, read-out: Half-life t1/2 (converted)
# Method: ICR (CD-1) male mice, 3 mice per group. One group of mice was injected with the compound to be tested via the tail vein at a dose of 1 mg/kg. The other group of mice was administered the compound to be tested via single-dose oral administration at a dose of 3 mg/kg. In the tail vein injection group, blood was collected from the saphenous vein at 5 minutes, 15 minutes, 30 minutes, 1 hour, 2 hours, 4 hours, 8 hours, and 24 hours post-administration. In the single-dose oral administration group, blood was collected at 15 minutes, 30 minutes, 1 hour, 2 hours, 4 hours, 8 hours, and 24 hours post-administration. The collected blood was placed in an EDTA-K2 anticoagulant tube, and 30 μL of whole blood was collected at each time point. Immediately after collection, blood samples were placed on wet ice for centrifugation. Samples would be centrifuged (maintained at 4600 rpm for 5 minutes at 4° C.) within 30 minutes to obtain plasma. The plasma sample was placed into a test tube (a target of 12 to 20 μL) for analysis. […] of plasma was added with 5 μL of MeOH, then added with 200 μL of MeOH/ACN solution containing 5 ng/mL of ISTD (Terfenadine), mixed well with shaking, and centrifuged at 4000 rpm for 15 minutes. The supernatant was diluted 5-fold with MeOH/water (1:1, v/v, 0.1% FA), and loaded to LC-MS/MS for quantification of plasma concentration by analytical methods and calculation of pharmacokinetic parameters.
# PARP1 = PARP1 (Homo sapiens (Human), UniProt P09874); assay: PARP1 enzymatic activity assay; type: biochemical; conditions: for IC50: final PARP1 0.02 nM, DNA 0.8 nM, NAD+ 3.5 μM, 60 minutes; for PARP1/PARP2 inhibition Selectivity multiple N (N = IC50 (PARP2)/IC50 (PARP1)): ratio IC50 (PARP2)/IC50 (PARP1)
# Sequence of PARP1 (P09874 whole entry): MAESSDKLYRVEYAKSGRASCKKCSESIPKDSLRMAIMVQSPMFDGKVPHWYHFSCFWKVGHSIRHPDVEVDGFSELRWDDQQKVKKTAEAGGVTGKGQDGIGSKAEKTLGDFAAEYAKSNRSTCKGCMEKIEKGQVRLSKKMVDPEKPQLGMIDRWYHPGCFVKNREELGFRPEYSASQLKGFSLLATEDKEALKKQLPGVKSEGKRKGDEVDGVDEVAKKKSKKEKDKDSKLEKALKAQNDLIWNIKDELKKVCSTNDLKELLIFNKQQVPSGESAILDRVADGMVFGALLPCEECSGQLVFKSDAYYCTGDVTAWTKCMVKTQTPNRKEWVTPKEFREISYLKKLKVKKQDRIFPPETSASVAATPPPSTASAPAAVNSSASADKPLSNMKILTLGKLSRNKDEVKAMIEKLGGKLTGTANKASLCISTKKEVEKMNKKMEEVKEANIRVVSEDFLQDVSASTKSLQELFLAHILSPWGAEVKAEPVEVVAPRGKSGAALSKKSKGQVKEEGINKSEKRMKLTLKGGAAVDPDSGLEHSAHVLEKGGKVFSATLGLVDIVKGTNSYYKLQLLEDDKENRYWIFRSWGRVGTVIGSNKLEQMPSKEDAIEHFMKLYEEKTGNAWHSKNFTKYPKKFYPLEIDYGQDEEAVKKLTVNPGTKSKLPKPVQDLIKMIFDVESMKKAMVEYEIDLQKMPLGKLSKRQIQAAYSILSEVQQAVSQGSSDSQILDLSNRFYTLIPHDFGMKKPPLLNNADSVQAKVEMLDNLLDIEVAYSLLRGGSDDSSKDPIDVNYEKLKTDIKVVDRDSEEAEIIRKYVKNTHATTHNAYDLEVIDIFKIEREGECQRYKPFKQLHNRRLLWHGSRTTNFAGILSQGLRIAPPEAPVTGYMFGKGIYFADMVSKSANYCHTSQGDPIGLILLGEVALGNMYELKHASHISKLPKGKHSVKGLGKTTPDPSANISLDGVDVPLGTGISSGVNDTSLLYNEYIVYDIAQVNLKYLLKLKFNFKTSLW
# Method: 2) After the coating was completed, the coating buffer was discarded.
# After washing, the blocking buffer was discarded.
# 4) 1000× compound was prepared. 1 μL of compound was transferred to a 96-well plate containing 199 μL of reaction buffer (50 mM Tris-HCl (pH 7.5), 0.005% Tween-20, 0.01% BSA) and mixed well.
# 5) 25/10×PARP1-DNA solution was prepared with reaction buffer.
# 6) 25/10×NAD+ solution was prepared with reaction buffer.
# 8) Primary antibody was 2000-fold diluted with the blocking buffer. 20 μL of primary antibody was added to the reaction plate, which was incubated at room temperature for 1.5 hours.
# 9) The primary antibody was discarded.
# 10) Secondary antibody was 2000-fold diluted with the blocking buffer.
# 11) The secondary antibody was discarded.
# The chemiluminescence value RLU was read with Envision.
# MDA-MB-436 cells = assay: Proliferation activity assay of MDA-MB-436 cells (CellTiter-Glo); type: cell-based; conditions: 4000 cells seeded, 6 days incubation, read-out: MDA-MB-436 proliferation inhibition IC50
# Method: Complete culture medium was prepared and mixed thoroughly. The cells were resuscitated and cultured for about two passages to select a cell line in good growth condition. The cell culture flask was removed from the incubator. Cell adherence: the culture medium was aspirated, then the cells were washed once with trypsin to discard the waste liquid, and 3 mL of fresh trypsin was added to the culture flask for digestion. When the cells were loose to be detached from the wall of the flask, 8 mL of complete culture medium was added thereto to stop trypsin digestion and mixed gently. The cell suspension was transferred to a centrifuge tube with a pipette and centrifuged at 1000 rpm for 5 minutes. The supernatant was discarded. An appropriate volume of culture medium was added to the centrifuge tube and pipetted gently to resuspend the cells evenly. The cells were counted using a Vi-Cell XR cell counter. The cell suspension was adjusted to an appropriate concentration. The cell suspension was added to a 96-well plate at 100 µL/well. The details such as cell name, seeding density, and date were labelled, and the culture plate was placed in a CO2 incubator overnight.
# The compound to be tested was prepared into a 10 mM stock solution, which was aliquoted and stored in a −20° C. freezer. The compound solution was added to a 96-well plate using HPD300. The plate was incubated in a CO2 incubator for a total of 6 days.
# CellTiter-Glo buffer was melted at room temperature. The lyophilized CellTiter-Glo substrate was equilibrated to room temperature. CellTiter-Glo buffer was added to the CellTiter Glo substrate and mixed thoroughly. A cell plate was taken out and equilibrated to room temperature. 100 μL of mixed CellTiter Glo reagent was added to each well, and the mixture was shaken in the dark for 10 minutes, followed by incubation for 20 minutes. The culture plate was placed into an Enspire reading plate, and the luminescence reading results were recorded. […] A pharmacodynamic inhibition rate curve was plotted by using XLFit, and the IC50 value was calculated. The 4-parameter model [fit=(A+((B−A)/(1+((C/x)^D)))] was used.
# PARP2 = PARP2 (Homo sapiens (Human), UniProt Q9UGN5); assay: PARP2 enzymatic activity assay; type: biochemical; conditions: Biotin-NAD+ 2 μM, 60 minutes
# Sequence of PARP2 (Q9UGN5 whole entry): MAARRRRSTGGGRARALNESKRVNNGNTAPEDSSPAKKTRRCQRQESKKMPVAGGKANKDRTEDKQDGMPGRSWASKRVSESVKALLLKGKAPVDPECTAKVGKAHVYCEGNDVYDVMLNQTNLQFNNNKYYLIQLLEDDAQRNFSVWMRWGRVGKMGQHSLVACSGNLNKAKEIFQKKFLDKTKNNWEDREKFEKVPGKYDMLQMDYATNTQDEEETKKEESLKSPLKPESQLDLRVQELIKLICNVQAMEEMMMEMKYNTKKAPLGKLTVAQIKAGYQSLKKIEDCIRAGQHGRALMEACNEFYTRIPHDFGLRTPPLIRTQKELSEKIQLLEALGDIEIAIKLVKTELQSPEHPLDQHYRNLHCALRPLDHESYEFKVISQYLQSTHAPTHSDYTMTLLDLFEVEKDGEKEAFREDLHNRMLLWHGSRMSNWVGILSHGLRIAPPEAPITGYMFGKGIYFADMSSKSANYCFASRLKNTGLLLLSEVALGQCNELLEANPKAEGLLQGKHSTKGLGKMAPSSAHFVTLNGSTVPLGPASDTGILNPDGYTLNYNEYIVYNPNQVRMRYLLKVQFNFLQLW
# [2] = Homo sapiens, MDA-MB-436, 144 h
SMILES,Clearance [1],half-life [1],IC50 (PARP1),PARP1/PARP2 inhibition Selectivity multiple N (N = IC50 (PARP2)/IC50 (PARP1)) (PARP1),Half-life t1/2 [1],IC50 (PARP2; final PARP2 […]),IC50 (PARP2; final PARP2 1.5 nM),IC50 (MDA-MB-436 cells),IC50 (MDA-MB-436 cells; [2])
"CCc1cc2ncc(CN3CCN(c4ccc(C(=O)NC)nc4)CC3)cc2[nH]c1=O [AZD5305, reference compound]",10.3 mL/h/kg,8.04 h,–,–,–,–,–,–,–
"CCc1cc2ncc(CN3CCN(c4ccc(C(=O)NC)nc4)[C@@H]4CC[C@@H]43)cc2[nH]c1=O [Example 2-2, 5-((1R,6S)-5-((7-ethyl-6-carbonyl-5,6-dihydro-1,5-naphthyridin-3-yl)methyl)-2,5-diazabicyclo[4.2.0]octan-2-yl)-N-methylpyridine-2-carboxamide]",1.74 mL/h/kg,–,0.6 nM,71,57.9 h,46.4 nM,–,1 nM,–
"CNC(=O)c1ccc(N2CCN(Cc3cnc4c5c(c(=O)[nH]c4c3)CCC5)[C@H]3CC[C@H]32)cn1 [Example 12-2, N-methyl-5-[(1R,6S)-5-((6-oxo-5H,7H,8H,9H-cyclopenta[c][1,5]naphthyridin-3-yl)methyl)-2,5-diazabicyclo[4.2.0]octan-2-yl]pyridine-2-carboxamide]",1.92 mL/h/kg,41.3 h,0.5 nM,120,–,–,60 nM,–,2 nM

# Second part, led by results:
Clearance [1],half-life [1],IC50 (PARP1),PARP1/PARP2 inhibition Selectivity multiple N (N = IC50 (PARP2)/IC50 (PARP1)) (PARP1),Half-life t1/2 [1],IC50 (PARP2; final PARP2 […]),IC50 (PARP2; final PARP2 1.5 nM),SMILES,IC50 (MDA-MB-436 cells),IC50 (MDA-MB-436 cells; [2])
1.62 mL/h/kg,47.6 h,1.2 nM,39,–,–,47 nM,"CNC(=O)c1ccc(N2CCN(Cc3cnc4cc(C(F)(F)F)c(=O)[nH]c4c3)[C@H]3CC[C@H]32)cn1 [Example 30-2, N-methyl-5-((1R,6S)-5-((6-oxo-7-(trifluoromethyl)-5,6-dihydro-1,5-naphthyridin-3-yl)methyl)-2,5-diazabicyclo[4.2.0]octan-2-yl)picolinamide]",–,1 nM
–,–,0.3 nM,303,–,–,91 nM,"CNC(=O)c1ccc(N2CCN(Cc3cnc4c5c(c(=O)[nH]c4c3)OCCC5)[C@@H]3CC[C@@H]32)cn1 [Example 31-1, N-methyl-5-((1S,6R)-5-((6-oxo-6,8,9,10-tetrahydro-5H-pyrano[2,3-c][1,5]naphthyridin-3-yl)methyl)-2,5-diazabicyclo[4.2.0]octan-2-yl)picolinamide]",–,3 nM
